{"source": "patent US20230021483A1", "about": "“[…] […] METHOD AND CLASSIFICATION OF PHARMACEUTICAL COMPONENTS BY USING TRANSCRIPTOMES” (National Institutes of Biomedical Innovation, Health and …, priority 2016, published 2023)", "assay_type_in_all_cases": "in vivo, C57BL/6 mice", "key": {"[1]": {"test_system": "inguinal lymph nodes (LN)", "assay": "Whole organ transcriptome (GeneChip microarray) of draining inguinal lymph nodes 6 h after adjuvant administration: sDEGs, gene modules, hierarchical clustering; as to adjuvant group (cluster) in LN: key: G1 (interferon signaling); G2 (metabolism of lipids and lipoproteins); G3 (response to stress); G4 (response to wounding); G5 (phosphate-containing compound metabolic process); G6 (phagosome)"}, "LV, SP and LNs": {"test_system": "LV, SP and LNs", "assay": "Whole organ transcriptome across organs (adjuvant gene space): gene responses and adjuvant grouping"}, "[2]": {"test_system": "preferentially upregulated genes in LV, SP, LN", "assay": "Z-score-based differential gene expression analysis (adjuvant group- or adjuvant-associated genes, 40 module mapping, TargetMine annotation)", "settings": "ID, LN", "in_short": "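Gene groups for each organ were built from combined z-score cutoffs across adjuvants, ranging from z>1 to z>3. Scores came from fold changes standardized per gene over the whole organ data set, with the three replicate z-scores added per adjuvant; sums above 3 marked preferential expression.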"}}}
{"substance": "K3: B class CpG ODN (ATCGACTCTCGAGCGTTCTC), TLR9 ligand (chemistry not given here)", "values": [{"measurement": "genes in module 16 of the LNs (M16^LN), phagosome-related, macrophage-associated", "setting": "[1]; LN, 6 h", "result": "upregulated"}, {"measurement": "module M15^LN (immune system process, T cell associated)", "setting": "[1]; LN, 6 h", "result": "weakly induced"}, {"measurement": "adjuvant group (cluster) in LN", "setting": "[1]; hierarchical clustering, lymph node", "result": "G5"}, {"measurement": "Number of gene probes with statistically significant changes (sDEGs), LN, Down", "setting": "[1]; i.d. administration, lymph node, fold change <0.667, p<0.01, customized PA call=1, 6 h after adjuvant", "result": 18}, {"measurement": "Number of gene probes with statistically significant changes (sDEGs), LN, Up", "setting": "[1]; i.d. administration, lymph node, fold change >1.5, p<0.01, customized PA call=1, 6 h after adjuvant", "result": 53}, {"measurement": "gene expression changes in LV and SP", "setting": "LV, SP and LNs; 6 h, Table 15, route not given", "result": "relatively weaker responses"}, {"measurement": "distribution/strength of gene responses between local LNs and systemic organs (LV, SP)", "setting": "LV, SP and LNs; 6 h after i.d. (local) administration", "result": "acted on local LNs but not in the systemic remote organs"}, {"measurement": "adjuvant group (cluster) within the adjuvant gene space", "setting": "LV, SP and LNs; hierarchical clustering, LV, SP and/or LNs", "result": "G5"}, {"measurement": "z sum, 1444615_x_at Runx1t1", "setting": "[2]; Module#(LN) 1", "result": "−2.11"}, {"measurement": "z sum, 1420894_at Tgfbr1", "setting": "[2]; Module#(LN) 3", "result": "−2.14"}, {"measurement": "z sum, 1460069_at Smc6", "setting": "[2]; Module#(LN) 7", "result": "−3.53"}, {"measurement": "z sum, 1440371_at ---", "setting": "[2]; Module#(LN) 8", "result": "−1.24"}, {"measurement": "z sum, 1456346_at ---", "setting": "[2]; Module#(LN) 9", "result": "−2.13"}, {"measurement": "z sum, 1425105_at Rbp3", "setting": "[2]; Module#(LN) 10", "result": "−2.11"}, {"measurement": "z sum, 1455796_x_at Olfm1", "setting": "[2]; Module#(LN) 11", "result": "−1.44"}, {"measurement": "z sum, 1443302_at ---", "setting": "[2]; Module#(LN) 12", "result": "−2.78"}, {"measurement": "z sum, 1442518_at C030044O21Rik", "setting": "[2]; Module#(LN) 14", "result": "−1.58"}, {"measurement": "z sum, 1419486_at Foxc1", "setting": "[2]; Module#(LN) 19", "result": "−0.76"}, {"measurement": "z sum, 1441344_at Erlin1", "setting": "[2]; Module#(LN) 21", "result": "−2.63"}, {"measurement": "z sum, 1423611_at Alpl", "setting": "[2]; Module#(LN) 24", "result": "−1"}, {"measurement": "z sum, 1448179_at Usmg5", "setting": "[2]; Module#(LN) 24", "result": "−2.02"}, {"measurement": "z sum, 1458457_at ---", "setting": "[2]; Module#(LN) 26", "result": "−0.33"}, {"measurement": "z sum, 1450377_at Thbs1", "setting": "[2]; Module#(LN) 28", "result": "−2.87"}, {"measurement": "z sum, 1443853_x_at Sfmbt1", "setting": "[2]; Module#(LN) 32", "result": "−2.59"}, {"measurement": "z sum, 1443392_at Trpv1", "setting": "[2]; Module#(LN) 33", "result": "−1.04"}, {"measurement": "z sum, 1440475_at AW011738", "setting": "[2]; Module#(LN) 36", "result": "−2.36"}, {"measurement": "z sum, 1416380_at Mov10", "setting": "[2]; Module#(LN) 37", "result": "−2.43"}, {"measurement": "z sum, 1421008_at Rsad2", "setting": "[2]; Module#(LN) 37", "result": "−1.42"}, {"measurement": "z sum, 1421009_at Rsad2", "setting": "[2]; Module#(LN) 37", "result": "−0.76"}, {"measurement": "z sum, 1424339_at Oasl1", "setting": "[2]; Module#(LN) 37", "result": "−0.5"}, {"measurement": "z sum, 1426013_s_at Plekha4", "setting": "[2]; Module#(LN) 37", "result": "−1.53"}, {"measurement": "z sum, 1436058_at Rsad2", "setting": "[2]; Module#(LN) 37", "result": "−0.71"}, {"measurement": "z sum, 1436472_at Slfn9", "setting": "[2]; Module#(LN) 37", "result": "−2"}, {"measurement": "z sum, 1447241_at ---", "setting": "[2]; Module#(LN) 37", "result": "−2.6"}, {"measurement": "z sum, 1416039_x_at Cyr61", "setting": "[2]; Module#(LN) 39", "result": "−1.58"}, {"measurement": "z sum, 1418191_at Usp18", "setting": "[2]; Module#(LN) 40", "result": "−0.03"}, {"measurement": "z sum, 1418293_at Ifit2", "setting": "[2]; Module#(LN) 40", "result": "−0.49"}, {"measurement": "z sum, 1418580_at Rtp4", "setting": "[2]; Module#(LN) 40", "result": "−1"}, {"measurement": "z sum, 1419603_at Ifi204", "setting": "[2]; Module#(LN) 40", "result": "−1.28"}, {"measurement": "z sum, 1421911_at Stat2", "setting": "[2]; Module#(LN) 40", "result": "−0.43"}, {"measurement": "z sum, 1422006_at Eif2ak2", "setting": "[2]; Module#(LN) 40", "result": "−1.95"}, {"measurement": "z sum, 1422141_s_at Csprs///Gm15433///Gm2666///Gm7609///LOC100041903///LOC100503923", "setting": "[2]; Module#(LN) 40", "result": "−1.36"}, {"measurement": "z sum, 1423555_a_at Ifi44", "setting": "[2]; Module#(LN) 40", "result": "−1.43"}, {"measurement": "z sum, 1424444_a_at 1600014C10Rik", "setting": "[2]; Module#(LN) 40", "result": "−0.85"}, {"measurement": "z sum, 1424607_a_at Gm4354", "setting": "[2]; Module#(LN) 40", "result": "−0.89"}, {"measurement": "z sum, 1424609_a_at Cwc22///Gm4354///Xdh", "setting": "[2]; Module#(LN) 40", "result": "−2.76"}, {"measurement": "z sum, 1431095_a_at Herc6", "setting": "[2]; Module#(LN) 40", "result": "−0.73"}, {"measurement": "z sum, 1432417_a_at Tspan2", "setting": "[2]; Module#(LN) 40", "result": "−2.15"}, {"measurement": "z sum, 1439886_at ---", "setting": "[2]; Module#(LN) 40", "result": "−1.19"}, {"measurement": "z sum, 1450403_at Stat2", "setting": "[2]; Module#(LN) 40", "result": "−1.07"}, {"measurement": "z sum, 1451777_at Ddx60", "setting": "[2]; Module#(LN) 40", "result": 0.163}, {"measurement": "z sum, 1452349_x_at Ifi205///Mnda", "setting": "[2]; Module#(LN) 40", "result": "−1.48"}, {"measurement": "z sum, 1453196_a_at Oasl2", "setting": "[2]; Module#(LN) 40", "result": "−1.27"}, {"measurement": "z sum, 1453299_a_at Pnp///Pnp2", "setting": "[2]; Module#(LN) 40", "result": "−0.78"}, {"measurement": "z sum, 1453757_at Herc6", "setting": "[2]; Module#(LN) 40", "result": "−0.2"}, {"measurement": "z sum, 1456164_at AW011738", "setting": "[2]; Module#(LN) 40", "result": "−2.08"}]}
